Assay results published in patent US20140050773A1, “COMPOUND COMPRISING ALPHA-MSH FOR USE IN ENDODONTIC REGENERATION” (Universite De Strasbourg, priority 2010, published 2014).

Legend:
[1] = test system: pulp fibroblasts; assay: Intracellular cAMP accumulation in pulp fibroblasts; format: cell-based, human; conditions: 30 min; forskolin 3 μM, MTII 10 μg·mL-1; basal level 239±36 fmol/well
Protocol: Pulp fibroblasts (1×10^5) were plated in 24-well-plates in D-MEM® containing 1% antimicotic solution and 10% FBS (Life Technologies, Paisley, UK). The cultures were incubated at 37° C. in a humidified atmosphere of 5% CO2, and allowed to adhere for 2 h. Cells were then washed and incubated with […] Forskolin (positive control), the MC3/4R agonist MTII (10 μg·mL^−1), the MC1R agonist MS05 (10 μg·mL^−1), and PGA-α-MSH (10-300 μg·mL^−1) in the presence of 1 mM isobutylmethylxantine in serum-free medium and incubated for 30 min at 37° C. in a humidified atmosphere of 5% CO2. A non-treated group incubated in serum-free medium alone served as a negative control. Cell supernatants were then removed and the cells were lysed. Intracellular cAMP was quantified using a commercially available enzyme immunoassay kit and a standard curve constructed with 0-3200 fmol μg·mL-1 cAMP (Amersham Bioscience, Little Chalfont, U.K).

[2] = test system: LPS-stimulated pulp fibroblasts; assay: TNF-α, IL-8 and IL-10 production by LPS-stimulated pulp fibroblasts (ELISA); format: cell-based, human
Protocol: Human pulp fibroblasts were obtained from human third molar germ tissue extracted for orthodontic reasons (Dental School, Strasbourg). These tissues were used with the patient's informed consent and approval by the Research Ethics Committee. Human pulp fibroblasts and mouse embryo fibroblasts (NIH 3T3, a gift of IGBMC, Strasbourg, France) were cultured in Dulbecco's modified Eagle's medium (D-MEM®) containing 1% antimicotic solution and 10% FBS (Life Technologies, Paisley, UK). The cultures were incubated at 37° C. in a humidified atmosphere of 5% CO2. When the cells reached sub-confluence, they were harvested with trypsin and sub-cultured. The fibroblast cultures used for all experiments were from passages three to six. Fibroblasts (5×10^5) were seeded in 24-well plates (Nunc, CML, Nemours, France) and incubated with LPS (10 ng·mL^−1) from E, coli in the presence or absence of free α-MSH or PGA-Q-MSH coupled peptides, in D-MEM® without FBS. At different time-points of incubation, cells were centrifuged and the levels of TNF-α, IL-10 or IL-8 in cell-free supernatants were determined using commercially available ELISA kits (Endogen, Woburn, Mass.). Studies of the effects of multilayer films consisting of PGA-α-MSH coupled peptides were conducted by seeding 5×10^5 cells directly onto the film in a 24-well plate as previously described (Chluba et al. Biomacromolecules. 2001, 2:800-805). All experiments were performed at least three times. […]

[3] = test system: pulp fibroblasts; format: cell-based, human
Protocol: (§1) Cell viability was determined by trypan blue exclusion. Cell proliferation was measured by the acid phosphatase method. Briefly, cells were washed with […] PBS. The buffer added to each well contains 0.1 M sodium acetate (pH 5.5), 0.1% of X-100 Triton and 10 mM of p-nitrophenyl phosphate [pNPP] (Sigma, St Quentin, France). After a 3 h-incubation at 37° C. with 5% 002 the reaction was stopped by the addition of 1 N sodium hydroxide and the absorbance was measured by spectrophotometer at 405 nm (Labsystems, iEMS Reader MF, Gibco). Cell viability and proliferation were measured at 24 and 96 hours. Cell spreading and adhesion were observed by confocal microscopy. AlamarBlue® (Serotec) was used to assess cellular proliferation. The AlamarBlue test is a non-toxic, water-soluble, calorimetric redox indicator that changes color in response to cell metabolism. […] After 6 hours, […] of incubation media was transferred to 96-well plates and measured at 590 nm and 630 nm in order to determine the percentage of AlamarBlue reduction. The ability of free α-MSH and PGA-α-MSH to promote proliferation and/or adhesion of fibroblasts was also determined. Cell viability was determined by trypan blue exclusion and the proliferation was measured by the acidic phosphatase method (FIG. 4).

[4] = test system: pulp fibroblasts; assay: Cell proliferation by the acid phosphatase method; format: cell-based, human; conditions: in solution, FIG. 4 lower part
Protocol: as §1

[5] = test system: pulp fibroblasts; assay: Pulp fibroblast adhesion by confocal microscopy; format: cell-based, human; conditions: 2 days of culture; FIG. 5
Protocol: Cell spreading and adhesion were observed by confocal microscopy. […] In this study, 5×10^4 pulp fibroblasts were seeded on the top of LbL-coated 14 mm-diameter coverslips (n=3) placed on 24-well plates. […] After 2 days of proliferation, cells were fixed with 4% PFA during 1 hour, permeabilized with 0.1% Triton X-100 for 1 hour and incubated for 20 min with Alexa Fluor 546-conjugated phalloidin (Molecular Probes) for F-actin labeling and 5 min with 200 nM DAPI (Sigma) for nuclear staining. Cells were mounted on microscope slides using Vectashield (Vector) and imaged by confocal microscopy (Zeiss, LSM 510). CLSM observations were documented with a Zeiss LSM 510 microscope using a ×40/1.4 oil immersion objective at 0.4 μm z-section intervals. FITC fluorescence was detected after excitation at 488 nm with a cutoff dichroic mirror 488 nm and an emission band-pass filter 505-530 nm (green). All experiments were performed with cells in solution.

[6] = target: MCR receptors (melanocortin receptors) on human pulp fibroblasts; assay: cell-based or functional assay

Compound C=C[C@@]1(C)CC(=O)[C@]2(O)[C@@]3(C)[C@@H](O)CCC(C)(C)[C@@H]3[C@H](O)[C@H](OC(C)=O)[C@@]2(C)O1 [forskolin, Forskolin] has a cAMP concentration [1] of 3367±242 fmol/well.
For “HS—CH2CH2-Ser-Tyr-Ser-Nle-Glu-His-D-Phe-Arg-Trp-Gly-Lys-Pro-Val-COOH [α-MSH]”, the “LPS-induced IL-8 secretion” value ([2]; 100 μg·mL^−1, 6 h time period) was “no inhibition”, the “IL-10 production by LPS-stimulated pulp fibroblasts” value ([2]; LPS 10 ng mL^−1, 100 μg·mL-1 peptide, late (4 hours)) was “induced significant levels” and the “amount of IL-8 produced (LPS-stimulated)” value ([2]; concentration increased to 400 μg·mL-1, data not shown) was “did not change”. For the same compound, the “LPS induced TNF-α secretion” value ([2]; early timepoints (20 min to 2 h), LPS 10 ng mL^−1, 100 μg·mL-1 peptide) was “significantly inhibited”, the “LPS induced TNF-α secretion” value ([2]; later time-points (4-6 h), LPS 10 ng mL^−1, 100 μg·mL-1 peptide) was “this effect was lost” and the “viability of pulp fibroblasts” value [3] was “not the viability”. For the same compound, the “proliferation of pulp fibroblasts” value [4] was “inhibits the proliferation”, the “proliferation of pulp fibroblasts” value ([4]; listed as free α-MSH) was “without effect” and the “adhesion of pulp fibroblasts” value [5] was “without effect”.
In the case of MTII, the cAMP concentration [1] is reported as 459±14 fmol/well.
Compound MTII (peptide) has an intracellular cAMP accumulation in pulp fibroblasts, 30 min [6] of 459 fmol/well.
